Results reported in US9149492B2, “Method for selectively inhibiting ACAT1 in the treatment of alzheimer's disease” (Trustees of Dartmouth College, priority 2008, dated 2015).
Peptide text beside a SMILES is read from it.

Tests used:
WT or A1-microglia = assay: Pulse-chase of intracellular oAβ42 degradation in microglia with lysosomal inhibitors; format: cell-based, mouse; conditions: pre-incubation with inhibitor, 0.5 μM oAβ 30 minutes, 6 hours chase
Method: WT or A1-microglia were pretreated with DMSO only; with bafilomycin A1 (BafA1), a lysosomal v-ATPase inhibitor (250 nM); with Ac-LVK-CHO, a cell permeable cathepsin B inhibitor (CapB I) at 1 μM; or with pepstatin A methyl ester, a cell permeable aspartyl peptidase inhibitor at 25 μM, for 60 minutes. Cells with or without the inhibitors were further incubated with 0.5 μM oAβ for 30 minutes. Cells were washed with pre-warmed PBS (twice) and pre-warmed medium (once) and then further incubated in fresh serum-free DMEM/F-12 (50:50) for 6 hours. At the end of incubation, cells were washed with PBS twice and lysed with 1% SDS containing a protease inhibitor cocktail. Intracellular oAβ levels were examined by ELISA. The values were normalized by cellular protein contents. The data are averages of 3-4 independent experiments. (mean±SEM, n.s. not significant, *p<0.05, p<0.01, ***p<0.001).
Pulse-chase of oAβ42 was also carried out (FIG. 4A) and the fate of oAβ42 was monitored via an ELISA assay.

AD mice = conditions: in vivo, cited from earlier work
mouse ACAT1 = mouse ACAT1 (Mus musculus (Mouse), UniProt Q61263); assay: ACAT1 western blot in NIH-3T3 fibroblasts transfected with microRNA; format: cell-based; conditions: 48 hours post-transfection, GFP-positive cells
From the text: NIH-3T3 mouse fibroblasts were transiently transfected with one of several rAAV vectors encoding EmGFP and microRNA (miR) #52, #53, #54 or #55. Forty-eight hours post-transfection, GFP-positive cells were harvested by FACS. GFP-positive cells were washed then lysed in 10% SDS and syringe homogenized. Twenty microgram of protein per sample was subjected to SDS-PAGE. After western blot analysis, bands were quantified with ImageJ. ACAT1 intensity was normalized to GAPDH as a loading control and expressed as relative intensity.
Four different siRNA molecules (#52-#55; SEQ ID NOs:37-40; Table 3) targeting the mouse Acat1 gene were inserted into an endogenous mouse microRNA (miR) scaffold using Invitrogen's RNAi design tool. The artificial miRs were ligated into the mammalian expression vector pcDNA6.2-GW/EmGFP-miR. These. […] The miRs were delivered to the cells using a standard cDNA transfection protocol.

WT microglia = assay: Oligomeric Aβ clearance from medium by microglia; format: cell-based, mouse; conditions: 1 μM pretreatment 24 hours, then 0.5 μM oAβ 18 hours
Method: WT or A1-microglia were treated with K604 at 1 μM in DMEM/F-12 (50:50) with 10% FBS for 24 hours. Control (Veh) or K604-treated microglia were subsequently incubated with 0.5 μM oAβ in serum-free DMEM/F-12 (50:50) containing 10 μg/ml BSA for 18 hours. At the end of incubation, the media were collected and the residual oAβ levels were detected by western blot analysis. Quantification was performed with image J software (mean±SEM, ***p<0.001).
Primary microglia from normal (WT) and Acat1-knockout (A1−) mouse brains were cultured in vitro. Oligomeric Aβ42 (0.5 μM) in serum-free DMEM/F-12 (50:50) medium containing 10 μg/ml BSA was added to the culture and the culture was incubated for 0, 3, 6, 12 or 18 hours. The remaining Aβ levels (1+2+3+4mers) in the media were analyzed by western blot analysis.
Clearance of oAβ in WT microglia and WT microglia pretreated with the ACAT1-selective inhibitor K604 was also determined.

[1] = system: transgenic mice expressing human APP(751) containing the London (V717I) and Swedish (K670M/N671L) mutations; conditions: cited from earlier work
human ACAT2 = human ACAT2 (Homo sapiens (Human), UniProt O75908); conditions: read-out: IC50 hACAT-2; cited from earlier work
[2] = system: hippocampal neurons from A1+/Alz mice; assay: 24SOH treatment of hippocampal neurons, hAPP and HMGR content; format: cell-based, mouse
Method: Hippocampal neurons were isolated from A1+/Alz and A1−/Alz mice at postnatal day 5 according to standard protocols (Brewer (1997) J. Neurosci. Methods 71:143-155; Price & Brewer (2001) In Protocols for Neural Cell Culture. Fedoroff & Richardson, editors. Totowa, N.J.: Humana Press, Inc. 255-264). Cells were seeded in 6-well dishes in triplicates at 300,000 cells/well, and grown in 3 ml/well Neurobasal A medium with 1×B27, 0.5 mM L-Gln and 5 ng/ml FGF for 14 days. Half of the medium was replaced with […] fresh media once every 7 days. Forty-eight hours after the second media replacement, 50 μCi of [^3H] sodium acetate (100 mCi/mmol) in PBS was added per well for 3 hours. Lipids in cells and in media were extracted, saponified, and analyzed by using the same TLC system described herein. To minimize sterol oxidation, samples were protected from light and heat during lipid extraction, and were analyzed without storage. To improve separation, after sample loading, the TLC plate was placed under vacuum for 30 minutes prior to chromatography. ^3H-labeled sterol bands were identified based on iodine staining of unlabeled sterols added to samples prior to lipid extraction. Rf values: lanosterol, 0.5; cholesterol, 0.38; 24SOH, 0.2. The bands were scraped off and counted. For each labeled sterol, the counts present in cells and in media were added to calculate the synthesis rate for that sterol. Cholesterol esterification in intact cells was conducted according to established methods (Chang, et al. (1986) Biochemistry 25:1693-1699); the ^3H-oleate pulse time was 3 hours.
To test this, hippocampal neurons from A1+/Alz mice were treated with 24SOH, and the hAPP protein content and the HMGR protein content were monitored in parallel.

Sequence of human ACAT2 (O75908 whole entry): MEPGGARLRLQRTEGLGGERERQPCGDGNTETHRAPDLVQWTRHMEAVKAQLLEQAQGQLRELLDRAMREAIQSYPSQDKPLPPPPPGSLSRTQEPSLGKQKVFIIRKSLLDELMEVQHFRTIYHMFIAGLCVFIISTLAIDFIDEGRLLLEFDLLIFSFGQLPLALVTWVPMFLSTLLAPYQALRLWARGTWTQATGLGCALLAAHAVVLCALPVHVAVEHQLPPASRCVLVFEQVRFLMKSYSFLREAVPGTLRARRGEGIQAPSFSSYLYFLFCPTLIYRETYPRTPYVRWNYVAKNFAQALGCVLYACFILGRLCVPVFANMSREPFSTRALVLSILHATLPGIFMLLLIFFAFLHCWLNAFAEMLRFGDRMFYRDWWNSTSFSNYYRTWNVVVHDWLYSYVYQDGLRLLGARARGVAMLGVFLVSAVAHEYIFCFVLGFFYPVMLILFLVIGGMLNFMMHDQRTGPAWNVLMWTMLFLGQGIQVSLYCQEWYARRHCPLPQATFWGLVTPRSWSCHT

## CC(=O)N[C@@H](CC(C)C)C(=O)N[C@H](C(=O)N[C@H](C=O)CCCCN)C(C)C [Ac-LVK-CHO] (Ac-Leu-Val-Lys-aldehyde)
WT or A1-microglia
  difference in oAβ42 degradation between WT and A1-microglia: abolished

## CC(C)c1cc(C(C)C)c(CC(=O)NS(=O)(=O)Oc2c(C(C)C)cccc2C(C)C)c(C(C)C)c1 [CI 1011]
AD mice; mouse
  amyloid plaques: significantly reduced
  cognitive deficits: rescued
  mature/immature ratio of hAPP: decreases

## miR Negative Control: negative control miR 5′-TACTGCGCGTGGAGACG-3′ (SEQ ID NO:46), matches no known vertebrate gene (chemistry not given here)
Mouse ACAT1
  Relative Intensity (ACAT1 normalized to GAPDH): 1.02

## CSc1cc(C)nc(SC)c1NC(=O)CN1CCN(CCSc2nc3ccccc3[nH]2)CC1 [K-604]
WT microglia
  enhancement of ability to clear oAβ42 from the medium: up to 65%
  oAβ degradation in microglia: promotes oAβ degradation

## CCCCCCCC[C@H](SCCCCCC)C(=O)Nc1c(SC)cc(C)nc1SC [CP-113,818]
[1]; mouse, in vivo
  spatial learning: slightly improved
[1]; nontransgenic littermates
  ectodomain shedding of endogenous APP in the brain: reduced
[1]; two months of treatment
  reduction of accumulation of amyloid plaques: 88%-99%
  reduction of membrane/insoluble Amyloid β levels: 83%-96%
AD mice
  processing of both human APP and mouse APP: inhibits
AD mice; mouse
  amyloid plaques: significantly reduced
  cognitive deficits: rescued

## saucerneol B
Human ACAT2
  IC50: 124 µM

## CC(C)[C@@H](O)CC[C@@H](C)[C@H]1CC[C@H]2[C@@H]3CC=C4C[C@@H](O)CC[C@]4(C)[C@H]3CC[C@]12C [24SOH, 24S-hydroxycholesterol]
[2]; 1 μM, within 3 hours
  HMGR protein content: rapidly decreased
  hAPP protein content: rapidly decreased
[2]; 1-5 μM
  hAPP mRNA level: without affecting
  hAPP protein content: rapid decline
